“And” between values parts separate entries of the source, which are not always exact repeats. Equal values may be shown once.
Columns and labels:
[1] = Absorption and photoluminescence spectroscopy in solution; format: physicochemical
Source text: The close proximity of the anthracene units in the mechanically interlocked cyclophanes was expected to give rise to remarkable optical properties distinct from those of the free cyclophanes. We explored the absorption and fluorescence properties of all compounds at high dilution (4×10^−7 M) to avoid reabsorption processes^40 and aggregation effects.^17 All of the optical parameters are summarized in Tables 1 and 2. Initially, we explored the influence of the pyridine/pyridinium units on the optical properties of both ^2,6AnBox^4+ and ^9,10AnBox^4+ cyclophanes. The presence of two pyridinium units within the linker dramatically affect the optical properties of the anthracene moiety. Although ^2,6AnBPY (FIG. 5C) and ^9,10AnBPY display^41 characteristic vibronic peaks associated with the anthracene moiety at 290 and 400 nm, ^2,6AnDB^2+ and ^9,10AnDB^2+ display a shift of the band at 290 to 330 nm (FIG. 5A) and the emergence of a new featureless broad band at 450 nm associated with CT from the anthracene moiety to the pyridinium unit. It is noteworthy that phenylene-bridged bipyridyl linkers (ExBIPY) display^35 a single absorption peak at 325 nm in MeCN, while the anthracene moiety leads to the emergence of some push-pull D-A character.
All reagents were purchased from commercial suppliers (Aldrich or Fisher) and used without further purification. Anthracene derivatives, 9,10-bis(4-pyridyl)anthracene (^9.^10AnBPY) and 2,6-bis(4-pyridyl)anthracene (^2,6AnBPY) were synthesized following^1,2 reports in the literature. All reactions and manipulations were carried out under a dry N2 atmosphere using standard Schlenk. Thin-layer chromatography (TLC) was performed on silica gel 60 F254 TLC plates (Merck). Column chromatography was carried out using CombiFlash® Automation Systems (Teledyne ISCO) employing both normal phase (RediSep Rf Gold® Normal-Phase Silica) and reverse phase (RediSep Rf Gold® Reversed-phase C18). […] All the spectra were baseline-corrected with a MeCN blank sample. The photoluminescence spectra of all samples were obtained with a Fluorolog-3 spectrafluorometer (Horiba Jobin Yvon) in a 2-mm quartz cuvette with 3-nm slit width and a front-phase geometry. The time-correlated single photon counting setup is described elsewhere.^3 Nuclear magnetic resonance (NMR) spectra were recorded on a Bruker Avance III 500 and 600 MHz spectrometers, with working frequencies of 500 and 600 MHz (′H NMR) and 125 MHz (^13C NMR), respectively. Chemical shifts are reported in ppm relative to the signals corresponding to the residual non-deuterated solvents (CD3CN: δ1−1=1.94 ppm and δC=1.32 ppm). High-resolution mass spectra (HRMS) were measured on an Agilent 6210 Time of Flight (TOF) LC-MS, using an ESI source, coupled with Agilent 1100 HPLC stack, using direct infusion (0.6 mL min ^−1). The binding constants were determined using this link: website http://supramolecular.org.^4

[2] = tested on: MIA PaCa-2 cancer cells; assay: Live-cell confocal microscopy imaging; format: cell-based; details: concentrations lower than 10×10^−6 M
Procedure: (§1) Cells were grown in standard DMEM (supplemented with 10% Fetal Bovine Serum and 1% Penicillin-Streptomycin, supplier=Corning). Cells were seeded into imaging coverglass chamber 40 hours prior to treatment. Compounds were resuspended in deionized H2O then diluted to the final concentration in media. Cells were treated with compounds for 6 hours prior to imaging.
(§2) All imaging was done on a Leica SP5 laser scanning confocal with LAS AF software in the Biological Imaging Facility at Northwestern University (Evanston, IL). A single excitation wavelength (458 nm) was used at a power of 5 uW. For the emission collection, two Leica spectral Hybrid (HyD) detectors were used; one was set to collect a wavelength range of 500-575 nm (with a gain of 200%) and the second was set to collect a wavelength range of 580-635 nm (with a gain of 103%). Images were processed with FIJI/ImageJ (NIH) and settings were kept consistent throughout the series of images.

[3] = tested on: MIA PaCa-2 prostate cancer cells; assay: Live-cell confocal microscopy imaging; format: cell-based; details: 20×10^−6 M, 6 hours treatment, excitation 458 nm
Procedure: as §1, §2

## c1cc2ccc1C[n+]1ccc(cc1)-c1ccc3cc4cc(ccc4cc3c1)-c1cc[n+](cc1)Cc1ccc(cc1)C[n+]1ccc(cc1)-c1ccc3cc4cc(ccc4cc3c1)-c1cc[n+](cc1)C2 [^2,6AnBox^4+]
[1]; 4 × 10^−7 M, MeCN
  Φ (PL quantum yield): 3.6%
  λabs: 458 nm
  λem: 548 nm and 562 nm
[1]; 4 × 10^−7 M, MeCN, 405 nm excitation
  τ (emission lifetime): 3 ns
[1]; 4 × 10^−7 M, MeCN, listed as cyclophane
  λem: 562 nm
[1]; DMF, 4 × 10^−7 M
  Stokes shifts (δ): 3153 cm⁻¹
  λabs: 472 nm
  λem: 549 nm
  λexc: 468 nm
[1]; EtOH, 4 × 10^−7 M
  Stokes shifts (δ): 3574 cm⁻¹
  λabs: 468 nm
  λem: 562 nm
  λexc: 468 nm
[1]; H2O, 4 × 10^−7 M
  Stokes shifts (δ): 3284 cm⁻¹
  λabs: 458 nm
  λem: 553 nm
  λexc: 468 nm
[1]; Me2SO, 4 × 10^−7 M
  Stokes shifts (δ): 3915 cm⁻¹
  λabs: 460 nm
  λem: 570 nm
  λexc: 466 nm
[1]; MeCN
  charge transfer (CT) absorption band: 458 nm
[1]; MeCN, 4 × 10^−7 M (Table 2)
  Stokes shifts (δ): 3946 cm⁻¹
  λabs: 458 nm
  λem: 562 nm
  λexc: 460 nm
[1]; MeCN, listed as cyclophane
  charge transfer (CT) absorption band: 455 nm
[1]; MeOH, 4 × 10^−7 M
  Stokes shifts (δ): 3854 cm⁻¹
  λabs: 460 nm
  λem: 568 nm
  λexc: 466 nm
[1]; from high concentration to high dilution (10^−8 M)
  concentration dependence of excimer/exciplex emission: absence of excimer emission at high concentration
[2]
  emission detected in live cells: No emissions
[3]
  emission in the green channel (500-575 nm) in live cells: an emission in the green channel
  emission in the red channel (580-635 nm) in live cells: very weak emission in the red channel
